The record followed here is patent US9850256B2, “Antibacterial basic biaromatic derivatives with aminoalkoxy substitution” (priority 2014, dated 2017).

Converted amounts (≈) assume the structure as drawn.

Common to all, as to experiment: Bacterial growth minimal inhibitory concentration (microdilution, cation-adjusted Mueller-Hinton Broth)
Background: Broth dilution looks for growth in wells or tubes with falling amounts of substance.

One experiment deals with K. pneumoniae T6474. The experiment is classed as cell-based, Klebsiella pneumoniae. Particulars: multiply-resistant strain (penicillin-, cephalosporin- and quinolone-resistant); for MIC: Klebsiella pneumoniae, T6474. Here is the method:
(§1) Minimal Inhibitory Concentrations (MICs; mg/L) were determined in cation-adjusted Mueller-Hinton Broth by a microdilution method following the description given in “Methods for Dilution Antimicrobial Susceptibility Tests for Bacteria that Grow Aerobically”, Approved standard, 7th ed., Clinical and Laboratory Standards Institute (CLSI) Document M7-A7, Wayne, Pa., USA (2006).
(§2) All Example compounds were tested against several Gram positive and Gram negative bacteria. […] Staphylococcus aureus A798 is a multiply-resistant strain (methicillin- and quinolone-resistant), Klebsiella pneumoniae T6474 is a multiply-resistant strain (penicillin-, cephalosporin- and in particular quinolone-resistant), while E. coli ATCC25922 and Pseudomonas aeruginosa ATCC 27853 are quinolone-sensitive strains.

In the next experiment the test system is E. coli ATCC25922. The experiment is classed as cell-based. Particulars: quinolone-sensitive strain; for MIC: Escherichia coli, ATCC25922. Here is the method:
as §1, §2

The test system of a further experiment is S. aureus A798. The experiment is classed as cell-based, Staphylococcus aureus. Particulars: multiply-resistant strain (methicillin- and quinolone-resistant); for MIC: Staphylococcus aureus, A798. Here is the method: as §1, §2
The subject of the next experiment is P. aeruginosa ATCC 27853. The experiment is classed as cell-based, Pseudomonas aeruginosa. Particulars: quinolone-sensitive strain; for MIC: Pseudomonas aeruginosa, ATCC27853. Here is the method:
as §1, §2

As usually defined, the MIC is the smallest concentration in the dilution series that meets the test's criterion for growth inhibition. Low values mean greater potency, high ones weaker potency. `CN1CC(Oc2cncc(-c3cccc(CNCC[C@H]4CN(c5ccc6c(n5)NC(=O)CO6)C(=O)O4)n3)n2)C1` [Example $179, 6-{(S)-5-[2-({6-[6-(1-methyl-azetidin-3-yloxy)-pyrazin-2-yl]-pyridin-2-ylmethyl}-amino)-ethyl]-2-oxo-oxazolidin-3-yl}-4H-pyrido[3,2-b][1,4]oxazin-3-one]: the MIC is 1 µg/mL (≈ 1.88 µM) with K. pneumoniae T6474, 1 µg/mL (≈ 1.88 µM) against E. coli ATCC25922, 0.5 µg/mL (≈ 0.939 µM) in the experiment with S. aureus A798 and 2 µg/mL (≈ 3.76 µM) in the experiment with P. aeruginosa ATCC 27853.
On to `O=C1COc2ccc(N3C[C@H](CCNCc4cccc(-c5cccc(OC6CCCNC6)n5)c4)OC3=O)nc2N1.O=CO` (mixture of isomers) [Example $111, 6-[(S)-2-oxo-5-(2-{3-[6-((RS)-piperidin-3-yloxy)-pyridin-2-yl]-benzylamino}-ethyl)-oxazolidin-3-yl]-4H-pyrido[3,2-b][1,4]oxazin-3-one formate], for which the MIC against K. pneumoniae T6474 worked out at 2 µg/mL; with E. coli ATCC25922, 2 µg/mL; against S. aureus A798, 1 µg/mL; in the experiment on P. aeruginosa ATCC 27853, 2 µg/mL.
With `C[C@H](N)COc1cccc(-c2cccc(CNCC[C@H]3CN(c4ccc5c(n4)NC(=O)CO5)C(=O)O3)c2)n1` [Example 18, 6-[(S)-5-(2-{3-[6-((S)-2-amino-propoxy)-pyridin-2-yl]-benzylamino}-ethyl)-2-oxo-oxazolidin-3-yl]-4H-pyrido[3,2-b][1,4]oxazin-3-one], the MIC in the experiment with K. pneumoniae T6474 came out at 2 µg/mL (≈ 3.86 µM); in the experiment with E. coli ATCC25922, 1 µg/mL (≈ 1.93 µM); in the experiment on S. aureus A798, 0.5 µg/mL (≈ 0.964 µM); in the experiment on P. aeruginosa ATCC 27853, 1 µg/mL (≈ 1.93 µM).
Consider `NCCNCCOc1cccc(-c2cccc(CNCC[C@H]3CN(c4ccc5c(n4)NC(=O)CO5)C(=O)O3)c2)n1` [Example $156, 6-{(S)-5-[2-(3-{6-[2-(2-amino-ethylamino)-ethoxy]-pyridin-2-yl}-benzylamino)-ethyl]-2-oxo-oxazolidin-3-yl}-4H-pyrido[3,2-b][1,4]oxazin-3-one], for which the MIC stood at 2 µg/mL (≈ 3.65 µM) in the experiment on K. pneumoniae T6474, 1 µg/mL (≈ 1.83 µM) with E. coli ATCC25922, 1 µg/mL (≈ 1.83 µM) against S. aureus A798 and 0.5 µg/mL (≈ 0.913 µM) in the experiment on P. aeruginosa ATCC 27853.
Turning to `NCCOc1ccnc(-c2cccc(CNCC[C@H]3CN(c4ccc5c(n4)NC(=O)CO5)C(=O)O3)c2)c1` [Example $154, 6-[(S)-5-(2-{3-[4-(2-amino-ethoxy)-pyridin-2-yl]-benzylamino}-ethyl)-2-oxo-oxazolidin-3-yl]-4H-pyrido[3,2-b][1,4]oxazin-3-one], the MIC amounted to 4 µg/mL (≈ 7.93 µM) in the experiment on K. pneumoniae T6474, 1 µg/mL (≈ 1.98 µM) with E. coli ATCC25922, 4 µg/mL (≈ 7.93 µM) in the experiment on S. aureus A798 and 0.5 µg/mL (≈ 0.991 µM) against P. aeruginosa ATCC 27853.
With `O=C1COc2ccc(N3C[C@H](CCNCc4cccc(-c5cccc(OC[C@@H]6CCN6)c5)c4)OC3=O)nc2N1` [Example $101, 6-[(S)-5-(2-{[3′-((S)-1-azetidin-2-ylmethoxy)-biphenyl-3-ylmethyl]-amino}-ethyl)-2-oxo-oxazolidin-3-yl]-4H-pyrido[3,2-b][1,4]oxazin-3-one], the MIC in the experiment with K. pneumoniae T6474 was found to be 2 µg/mL (≈ 3.78 µM); in the experiment on E. coli ATCC25922, 1 µg/mL (≈ 1.89 µM); against S. aureus A798 it was 2 µg/mL (≈ 3.78 µM); with P. aeruginosa ATCC 27853, 1 µg/mL (≈ 1.89 µM).
In the case of `O=C1COc2ccc(N3C[C@H](CCNCc4cccc(-c5cc(O[C@H]6CCNC6)cnn5)c4)OC3=O)nc2N1` [Example $181, 6-[(S)-2-oxo-5-(2-{3-[5-((S)-pyrrolidin-3-yloxy)-pyridazin-3-yl]-benzylamino}-ethyl)-oxazolidin-3-yl]-4H-pyrido[3,2-b][1,4]oxazin-3-one], the minimum inhibitory concentration (MIC) was above 16 µg/mL in the experiment on K. pneumoniae T6474, 16 µg/mL (≈ 30.1 µM) against E. coli ATCC25922, 16 µg/mL (≈ 30.1 µM) in the experiment with S. aureus A798 and 4 µg/mL (≈ 7.52 µM) in the experiment with P. aeruginosa ATCC 27853.
Consider `NCCOc1cncc(-c2ccnc(CNCC[C@H]3CN(c4ccc5c(n4)NC(=O)CO5)C(=O)O3)c2)n1` [Example $158, 6-{(S)-5-[2-({4-[6-(2-amino-ethoxy)-pyrazin-2-yl]-pyridin-2-ylmethyl}-amino)-ethyl]-2-oxo-oxazolidin-3-yl}-4H-pyrido[3,2-b][1,4]oxazin-3-one], for which the MIC with K. pneumoniae T6474 was 16 µg/mL (≈ 31.6 µM); in the experiment with E. coli ATCC25922, 8 µg/mL (≈ 15.8 µM); against S. aureus A798, 4 µg/mL (≈ 7.9 µM); with P. aeruginosa ATCC 27853, 2 µg/mL (≈ 3.95 µM).
With `CN1CC(Oc2cncc(-c3cncc(CNCC[C@H]4CN(c5ccc6c(n5)NC(=O)CO6)C(=O)O4)c3)n2)C1` [Example $190, 6-{(S)-5-[2-({5-[6-(1-methyl-azetidin-3-yloxy)-pyrazin-2-yl]-pyridin-3-ylmethyl}-amino)-ethyl]-2-oxo-oxazolidin-3-yl}-4H-pyrido[3,2-b][1,4]oxazin-3-one], the MIC with K. pneumoniae T6474 came out at 4 µg/mL (≈ 7.51 µM); against E. coli ATCC25922 it was 2 µg/mL (≈ 3.76 µM); in the experiment with S. aureus A798, 4 µg/mL (≈ 7.51 µM); against P. aeruginosa ATCC 27853, 4 µg/mL (≈ 7.51 µM).
For the compound `CN1CCC[C@H]1COc1cccc(-c2cccc(CNCC[C@H]3CN(c4ccc5c(n4)NC(=O)CO5)C(=O)O3)c2)n1` [Example $130, 6-[(S)-5-(2-{3-[6-((S)-1-methyl-pyrrolidin-2-ylmethoxy)-pyridin-2-yl]-benzylamino}-ethyl)-2-oxo-oxazolidin-3-yl]-4H-pyrido[3,2-b][1,4]oxazin-3-one], the MIC in the experiment with K. pneumoniae T6474 was 2 µg/mL (≈ 3.58 µM); in the experiment on E. coli ATCC25922, 1 µg/mL (≈ 1.79 µM); against S. aureus A798, 0.25 µg/mL (≈ 0.448 µM); against P. aeruginosa ATCC 27853, 4 µg/mL (≈ 7.16 µM).
As for `CN1CC[C@@H]1COc1cccc(-c2cccc(CNCC[C@H]3CN(c4ccc5c(n4)NC(=O)CO5)C(=O)O3)c2)n1` [Example $125, 6-[(S)-5-(2-{3-[6-((R)-1-methyl-azetidin-2-ylmethoxy)-pyridin-2-yl]-benzylamino}-ethyl)-2-oxo-oxazolidin-3-yl]-4H-pyrido[3,2-b][1,4]oxazin-3-one], the minimum inhibitory concentration (MIC) against K. pneumoniae T6474 came to 2 µg/mL (≈ 3.67 µM); against E. coli ATCC25922, 1 µg/mL (≈ 1.84 µM); against S. aureus A798, 0.5 µg/mL (≈ 0.918 µM); against P. aeruginosa ATCC 27853, 4 µg/mL (≈ 7.34 µM).
In the case of `CN1CC[C@H](Oc2cncc(-c3cncc(CNCC[C@H]4CN(c5ccc6c(n5)NC(=O)CO6)C(=O)O4)c3)n2)C1` [Example $146, 6-{(S)-5-[2-({5-[6-((S)-1-methyl-pyrrolidin-3-yloxy)-pyrazin-2-yl]-pyridin-3-ylmethyl}-amino)-ethyl]-2-oxo-oxazolidin-3-yl}-4H-pyrido[3,2-b][1,4]oxazin-3-one], the MIC in the experiment with K. pneumoniae T6474 was 4 µg/mL (≈ 7.32 µM); against E. coli ATCC25922 it was 2 µg/mL (≈ 3.66 µM); with S. aureus A798, 4 µg/mL (≈ 7.32 µM); in the experiment with P. aeruginosa ATCC 27853, 4 µg/mL (≈ 7.32 µM).
In the case of `CC(C)N1CCC(Oc2cccc(-c3cccc(CNCC[C@H]4CN(c5ccc6c(n5)NC(=O)CO6)C(=O)O4)c3)n2)C1` (mixture of isomers) [Example $134, 6-[(S)-5-(2-{3-[6-((RS)-1-isopropyl-pyrrolidin-3-yloxy)-pyridin-2-yl]-benzylamino}-ethyl)-2-oxo-oxazolidin-3-yl]-4H-pyrido[3,2-b][1,4]oxazin-3-one], the MIC was determined as 4 µg/mL against K. pneumoniae T6474, 2 µg/mL with E. coli ATCC25922, 0.5 µg/mL in the experiment on S. aureus A798 and 4 µg/mL with P. aeruginosa ATCC 27853.
Consider `NC1[C@H]2CN(CCOc3cccc(-c4cccc(CNCC[C@H]5CN(c6ccc7c(n6)NC(=O)CO7)C(=O)O5)c4)c3)C[C@@H]12` (mixture of isomers) [Example $117, 6-{(S)-5-[2-({3′-[2-((1R*,5S*,6RS)-6-amino-3-aza-bicyclo[3.1.0]hex-3-yl)-ethoxy]-biphenyl-3-ylmethyl}-amino)-ethyl]-2-oxo-oxazolidin-3-yl}-4H-pyrido[3,2-b][1,4]oxazin-3-one], for which the “MIC for K. pneumoniae T6474” value against K. pneumoniae T6474 is 1 µg/mL. In the experiment on E. coli ATCC25922, the “MIC for E. coli ATCC25922” value stood at 1 µg/mL. For the same compound, the “MIC for S. aureus A798” value with S. aureus A798 was determined as 1 µg/mL. Besides, the “MIC for P. aeruginosa ATCC 27853” value in the experiment on P. aeruginosa ATCC 27853 came to 4 µg/mL.
In the case of `CN1CC[C@H](Oc2cccc(-c3ccnc(CNCC[C@H]4CN(c5ccc6c(n5)NC(=O)CO6)C(=O)O4)c3)n2)C1` [Example $128, 6-[(S)-5-(2-{[6-((S)-1-methyl-pyrrolidin-3-yloxy)-[2,4′]bipyridinyl-2′-ylmethyl]-amino}-ethyl)-2-oxo-oxazolidin-3-yl]-4H-pyrido[3,2-b][1,4]oxazin-3-one], the minimal inhibitory concentration (MIC) in the experiment on K. pneumoniae T6474 came out at 1 µg/mL (≈ 1.83 µM); with E. coli ATCC25922 it was 0.5 µg/mL (≈ 0.916 µM); with S. aureus A798, 0.25 µg/mL (≈ 0.458 µM); against P. aeruginosa ATCC 27853 it was 1 µg/mL (≈ 1.83 µM).
As to `COc1cc(O[C@H]2CCN(C)C2)cc(-c2cccc(CNCC[C@H]3CN(c4ccc5c(n4)NC(=O)CO5)C(=O)O3)c2)n1` [Example $170, 6-[(S)-5-(2-{3-[6-methoxy-4-((S)-1-methyl-pyrrolidin-3-yloxy)-pyridin-2-yl]-benzylamino}-ethyl)-2-oxo-oxazolidin-3-yl]-4H-pyrido[3,2-b][1,4]oxazin-3-one], the minimal inhibitory concentration (MIC) against K. pneumoniae T6474 was found to be 4 µg/mL (≈ 6.96 µM); against E. coli ATCC25922 it was 2 µg/mL (≈ 3.48 µM); with S. aureus A798 it was 0.25 µg/mL (≈ 0.435 µM); against P. aeruginosa ATCC 27853 it was 2 µg/mL (≈ 3.48 µM).
Consider `CN1CC[C@@H](Oc2cccc(-c3cccc(CNCC[C@H]4CN(c5ccc6c(c5)NC(=O)CS6)C(=O)O4)c3)n2)C1` [Example $168, 6-[(S)-5-(2-{3-[6-((R)-1-methyl-pyrrolidin-3-yloxy)-pyridin-2-yl]-benzylamino}-ethyl)-2-oxo-oxazolidin-3-yl]-4H-benzo[1,4]thiazin-3-one], for which the MIC with K. pneumoniae T6474 came out at 2 µg/mL (≈ 3.57 µM); in the experiment on E. coli ATCC25922, 2 µg/mL (≈ 3.57 µM); in the experiment with S. aureus A798 it was 1 µg/mL (≈ 1.79 µM); against P. aeruginosa ATCC 27853, 2 µg/mL (≈ 3.57 µM).
For `CN1CC(Oc2cncc(-c3ccnc(CNCC[C@H]4CN(c5ccc6c(n5)NC(=O)CO6)C(=O)O4)c3)n2)C1` [Example $187, 6-{(S)-5-[2-({4-[6-(1-methyl-azetidin-3-yloxy)-pyrazin-2-yl]-pyridin-2-ylmethyl}-amino)-ethyl]-2-oxo-oxazolidin-3-yl}-4H-pyrido[3,2-b][1,4]oxazin-3-one], the MIC in the experiment with K. pneumoniae T6474 stood at 1 µg/mL (≈ 1.88 µM); in the experiment on E. coli ATCC25922 it was 0.5 µg/mL (≈ 0.939 µM); in the experiment on S. aureus A798, 0.5 µg/mL (≈ 0.939 µM); in the experiment on P. aeruginosa ATCC 27853 it was 0.5 µg/mL (≈ 0.939 µM).
